This is an account of results in PMC3726061 (Journal of pharmaceutical and biomedical analysis, 2012).

Assay [1] deals with T1, σ2 receptors (Rattus norvegicus, UniProt Q5U3Y7).
T1 sequence (Q5U3Y7 1-176): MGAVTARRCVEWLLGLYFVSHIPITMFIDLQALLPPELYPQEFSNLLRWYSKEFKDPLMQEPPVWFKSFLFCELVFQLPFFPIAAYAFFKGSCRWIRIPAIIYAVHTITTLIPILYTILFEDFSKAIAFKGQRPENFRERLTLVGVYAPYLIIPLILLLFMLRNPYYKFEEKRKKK
Kind of assay: σ2 competition binding, [3H]DTG with.

The subject of assay [2] is σ2. The conditions noted are these: read-out: Ki at σ2 (nM) Literature (reported value is IC50); Guinea-pig brain; ref Chaki, 1994; cited from earlier work.
Assay [3] concerns the target T2, σ1 receptors (Rattus norvegicus, UniProt Q9R0C9). Kind of assay: biochemical.
Assay [4] has as its system σ1. The conditions noted are these: cited from earlier work.
Assay [5] concerns the target T1, σ2 receptors. Kind of assay: σ2 competition binding, [3H]DTG with. This is another data set of the same source.
In assay [6] the target is T2, σ1 receptors. The assay can be described thus: σ1 competition binding, [3H].
For assay [7], the target named is σ1. The conditions noted are these: read-out: Ki at σ1 (nM) Literature, cited from earlier work.
In assay [8] the target is σ2. The settings on record: read-out: Ki at σ2 (nM) Literature, cited from earlier work.
In assay [9] the target is σ1. The conditions noted are these: read-out: Ki at σ1 (nM) Literature, footnote not given, cited from earlier work.
The target of assay [10] is T2, σ1 receptors. The settings on record: read-out: Ki at σ1 (nM) Experimental Brain/Brandel; rat brain P2, 5 nM [3H](+)-pentazocine, cell harvester.
Assay [11] concerns the target σ2. The conditions noted are these: read-out: Ki at σ2 (nM) Literature, footnote not given, cited from earlier work.
[12] abbreviates: read-out: Ki at σ2 (nM) Experimental Brain/Brandel, rat brain P2, 3 nM [3H]DTG with 300 nM (+)-pentazocine, cell harvester.
Setting [13] is: Rat brain P2 with 5 nM [3H](+)-pentazocine, ref Bowen, 1993.
The mark [14] stands for this setting: Rat brain P2, 3 nM [3H]DTG with 1 μM dextrallorphan, ref Bowen, 1993.

Structures are written as SMILES. Structures can show the parent of a compound that is named as a salt. Where two headings read alike, the source gives them in different places.

T2 sequence (Q9R0C9 whole entry): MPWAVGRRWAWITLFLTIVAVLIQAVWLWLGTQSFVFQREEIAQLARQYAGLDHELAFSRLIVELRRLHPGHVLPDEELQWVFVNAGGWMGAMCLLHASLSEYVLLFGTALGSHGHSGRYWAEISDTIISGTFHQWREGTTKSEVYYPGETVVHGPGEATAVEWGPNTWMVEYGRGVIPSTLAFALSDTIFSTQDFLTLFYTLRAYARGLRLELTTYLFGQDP

On to `CCCN(CCC)CCc1ccc(OC)c(OCCc2ccccc2)c1` [NE100, 4-methoxy-3-(2-phenylethoxy)-N,N-dipropylbenzeneethanamine hydrochloride], for which the Ki on σ2 receptors [1] was 95.5 ± 1 nM; on σ1 receptors [3] it was 0.0028 ± 0.0005 µM; at σ2 receptors [5], 0.0362 ± 0.0011 µM; on σ1 receptors [6], 2 ± 0.5 nM. The IC50 (usually the concentration at which inhibition is half-maximal) is 84.6 ± 32.9 nM in the assay on σ2 [2] and 1.54 ± 0.26 nM with σ1 [4] (read-out: Ki at σ1 (nM) Literature (reported value is IC50), Guinea-pig brain, ref Chaki, 1994).

Consider `CC(C)=CCN1CCC2(C)c3cc(O)ccc3CC1C2C` (single isomer, unassigned; (-)) [(−)-pentazocine], for which the figures for the Ki on σ2 receptors [1] (setting [12]), on σ1 [7] (setting [13]) and at σ2 [8] (setting [14]) were 108 ± 4.4 nM, […] and 108 ± 6 nM, respectively.

For the compound `COc1ccc2c(c1)[C@]13CCCC[C@@H]1[C@H](C2)N(C)CC3` [dextromethorphan, dextromethorphan hydrobromide], the Ki at σ2 receptors [1] is above 10000 nM; at σ1 [9] (ref g), 652 ± 33 nM; at σ1 receptors [3] it was 0.403 ± 0.022 µM; on σ2 receptors [5], above 10 µM; at σ1 receptors [6] it was 214 ± 15 nM.

In the case of `C=CCN1CCC2(C)c3cc(O)ccc3CC1C2C` (single isomer, unassigned; (+)) [(+)-SKF10, 047, (+)-N-allylnormetazocine hydrochloride], the Ki on σ1 receptors [10] is 287 ± 36 nM; at σ1 [7] (setting [13]) it was 28.7 ± 2.8 nM; on σ2 [8] (setting [14]), 33700 nM.

In the case of `C[C@@H]1CN(CCCn2c3ccccc3c3ccccc32)C[C@H](C)N1` [rimcazole, rimcazole dihydrochloride monohydrate], the figures for the Ki at σ2 receptors [1], at σ1 [9] (ref g) and on σ2 receptors [5] were 1570 ± 154 nM, 867 ± 185 nM and 0.719 ± 0.072 µM, respectively.

With `CC(C)=CCN1CC[C@]2(C)c3cc(O)ccc3C[C@H]1[C@H]2C` [(+)-pentazocine, (+)-Pentazocine], the Ki is 1410 ± 207 nM at σ2 receptors [1], […] on σ1 [7] (setting [13]), 1360 ± 134 nM at σ2 [8] (setting [14]) and 1.07 ± 0.094 µM on σ2 receptors [5].

On to `COCCCC/C(=N\OCCN)c1ccc(C(F)(F)F)cc1` [fluvoxamine, fluvoxamine maleate], for which the Ki at σ1 [9] (ref e) was 36 nM; on σ2 [11] (ref e), 8440 nM.

In the case of `c1ccc(CCN2CCCCC2)cc1` [AC927, N-phenethylpiperidine oxalate], the Ki at σ1 receptors [10] was 61.2 ± 5.6 nM; at σ2 receptors [1] (setting [12]), 384 ± 34 nM; at σ1 [7] (Rat brain P2 with 3 nM [3H](+)-pentazocine, ref Matsumoto, 2008) it was 30 ± 2 nM; at σ2 [8] (Rat brain P2, 3 nM [3H]DTG with 300 nM (+)-pentazocine, ref Matsumoto, 2008) it was 138 ± 18 nM.

Regarding `CC(=O)[C@H]1CC[C@H]2[C@@H]3CCC4=CC(=O)CC[C@]4(C)[C@H]3CC[C@]12C` [progesterone], the Ki was above 10000 nM at σ2 receptors [1]; 338 ± 8 nM on σ1 [9] (ref f); 0.234 ± 0.0044 µM at σ1 receptors [3]; above 10 µM on σ2 receptors [5]; 99.7 ± 3.1 nM on σ1 receptors [6].

Take `CCCc1ccc2c(c1)sc(=O)n2CCN1CCCCCC1` [SN56, 3-(2-(azepan-l-yl)ethyl)-6-propylbenzo[d]thiazol-2(3H)-one]: the Ki on σ1 receptors [10] is 1.7 ± 0.1 nM; at σ2 receptors [1] (setting [12]), 627 ± 115 nM; on σ1 [9] (ref h), 0.56 nM; on σ2 [11] (ref h) it was above 1000 nM; on σ1 receptors [6] (read-out: Ki (nM) σ1, Table 2, 96-well filtration method, rat liver P2, 5 nM [3H](+)-pentazocine), 1.6 ± 0.1 nM. On σ1 receptors [6] (selectivity ratio for σ1 versus σ2, 96-well method), the “Ki σ2/Ki σ1” value amounted to 168.

With `CN1CCN(CCc2ccc(Cl)c(Cl)c2)CC1` [BD1063, 1-[2-(3,4-dichlorophenyl)ethyl]-4-methylpiperazine dihydrochloride], the Ki at σ1 receptors [3] is 0.015 ± 0.0021 µM; on σ1 [4] (read-out: Ki at σ1 (nM) Literature, Guinea-pig brain P2 with 3 nM [3H](+)-pentazocine, ref Matsumoto, 1995), 9.15 ± 1.28 nM; on σ1 receptors [6] it was 33.4 ± 4.1 nM.
